Assay results: patent US9993000B2, “Isosorbide ether derivatives with preservation activity” (BASF SE, priority 2015, dated 2018)

Key:
Assay in all cases: Minimum Inhibitory Concentration (MIC) according to DIN 58 940
Format in all cases: cell-based
[1] = system: Candida albicans
Description: (§1) MIC: Determination of Minimum Inhibitory Concentration (MIC) according to DIN 58 940

[2] = system: Malassezia furfur; details: Malasse zia furfur
Description: as §1

[3] = system: Staphylococcus epidermis
Description: as §1

[4] = system: Aspergillus brasiliensis; details: Asperigillus brasiliensis
Description: as §1

[5] = system: Brevibacterium epidermis
Description: as §1

[6] = system: Staphylococcus aureus
Description: as §1

[7] = system: Propionibacterium acnes
Description: as §1

[8] = system: Pseudomonas aeruginosa
Description: as §1

[9] = system: Escherichia coli
Description: as §1

SMILES | MIC [1] | MIC [2] | MIC [3] | MIC [4] | MIC [5] | MIC [6] | MIC [7] | MIC [8] | MIC [9]
CCCCCCCCOC1COC2C(O)COC12 (stereo not drawn) [Compound (1)] | <50 ppm | <1,000 ppm | <100 ppm | <200 ppm | <500 ppm | <500 ppm | <500 ppm | <1,000 ppm | <1,000 ppm
CCCCCCCCC(O)COC1COC2C(O)COC12 (stereo not drawn) [Compound (3)] | ≤100 ppm | ≤2500 ppm | ≤20 ppm | <1000 ppm | ≤200 ppm | <500 ppm | <50 ppm | <1,000 ppm | <2,000 ppm
CCCCCCCCCCC(O)COC1COC2C(O)COC12 (stereo not drawn) [Compound (4)] | ≤20 ppm | ≤20 ppm | ≤20 ppm | <200 ppm | ≤20 ppm | <100 ppm | <100 ppm | <1,000 ppm | <2,000 ppm

Now from value to molecule:

MIC [1] | MIC [2] | MIC [3] | MIC [4] | MIC [5] | MIC [6] | MIC [7] | MIC [8] | MIC [9] | SMILES
>10,000 ppm | >10,000 ppm | <200 ppm | >10,000 ppm | >10,000 ppm | >10,000 ppm | >10,000 ppm | >10,000 ppm | >10,000 ppm | CCCCCCCCOC1COC2C(OCCCCCCCC)COC12 (stereo not drawn) [Comperative compound (1), reference compound]
≤20 ppm | 2,500 ppm | ≤20 ppm | ≤20 ppm | ≤20 ppm | <50 ppm | ≤20 ppm | >10,000 ppm | >10,000 ppm | CCCCCCCCCCCCOC1COC2C(O)COC12 (stereo not drawn) [Compound (2)]
